Tested on: perennial ryegrass 96-3047
Experiment: glyphosate applied at termination of the Maryland turf trial, plot survival
Assay type: in vivo, Lolium perenne L.
Details: perennial ryegrass 96-3047 plot, Maryland trial 1999, glyphosate at 2-quarts per acre; only plot not killed
Source text: In 1999, during the termination of the Maryland trial, 96-3047 was the only plot in the trial that was not killed when glyphosate at the rate of 2-quarts per acre was applied. Survival in the plot was estimated at 30% and plugs were pulled, coded as 99-0089, and 200 plants of 99-0089 were planted in an isolation block in the 1999 Post Falls, Id. nursery.

`O=C(O)CNCP(=O)(O)O` [glyphosate, N-(phosphonomethyl) glycine] was tested, and the “Survival in the plot” value was ~30%.

Source: US20110191876A1, “GLYPHOSATE TOLERANT PERENNIAL RYEGRASS NAMED 'JACKLIN 501'” (J.R. SIMPLOT COMPANY, priority 2009, published 2011)
